Data as given in BigSolDB 2.1.

Cc1ncc([N+](=O)[O-])n1CCO
solubility (mole fraction)
Settings	298.15 K	303.15 K	308.15 K	313.15 K	318.15 K	323.15 K	328.15 K	333.15 K
in transcutol	0.0207	0.0227	0.0244	0.0263	0.0283	0.0303	0.033	0.0361
in water	0.00111	0.00119	0.00128	0.00137	0.00147	0.00159	0.0017	0.00182
